Assay results published in patent US20250017878A1 (Chronic Airway Therapeutics Limited, priority 2021, published 2025).

Assays:
[1] = tested on: asthmatic mice (ovalbumin-sensitized and ovalbumin-challenged); test: Airway responsiveness to methacholine (airway resistance Raw, forced oscillation) in murine model of asthma, Example 1; format: in vivo, Balb/cJ mice
Procedure: The results obtained in drug-treated animals were compared with those obtained in vehicle-treated counterparts (controls) in experiments performed in close temporal relationship. […] Mice were sensitized with subcutaneous injection of 25 μg of ovalbumin adsorbed to aluminum hydroxide on protocol days 2, 9, and 16. Subsequently, mice were given 50 μL of saline solution containing 25 μg of ovalbumin intranasally, on a daily basis, from protocol days 23 through 27. A group of ovalbumin-sensitized saline-challenged mice serves as controls for systemic sensitization and respiratory challenges with ovalbumin. Prior to intranasal administrations, mice were sedated with halothane vapor. For the study of Example 1, ovalbumin-sensitized and ovalbumin-challenged mice, and ovalbumin-sensitized and saline-challenged mice will be referred to as asthmatic mice and control mice, respectively. […] To examine the effects of duration of β-adrenergic ligand therapy on the phenotype of the murine model of asthma, the experimental drugs were administered either acutely or chronically to different groups of asthmatic mice. […] These concentrations were chosen based on those producing therapeutic effects in mice in previously published studies. The non-asthmatic mice were fed normal chow. Salbutamol was delivered for 28 days at a dose of 0.5 mg/kg/day using an osmotic minipump (Alzet®, #2004, Durect Corporation, Cupertino, CA). […] Airway resistance (Raw) was measured using the forced oscillation technique. The cellular composition of bronchoalveolar lavage fluid (BALF) was also determined. […] However, it was observed that the degree of airway responsiveness and the number of eosinophils recovered in BALF were lower in non-treated asthmatic mice studied in close temporal relationship with mice receiving acute β-adrenergic antagonist treatments that in those obtained in non-treated asthmatic mice studied concomitantly with mice on chronic β-adrenergic antagonist therapy. […] The complex input impedance of the respiratory system was computed and the value of the real part of respiratory system impedance at 19.75 Hz was taken to reflect the magnitude of airway resistance (Raw). To examine the degree of airway responsiveness of each animal, the values for Raw as a function of methacholine doses were plotted. The largest value for Raw achieved in response to methacholine stimulation was referred to as […]. For mice that achieved a plateau in the methacholine dose-Raw response curve, the ED50 was calculated by linear interpolation using the GraphPad Prism4 (GraphPad Software, Inc.). Results obtained for β-adrenergic drug-treated and non-treated mice were performed using the analysis of variance for multiple groups of a Student's t-test for comparing two groups. The Bonferroni test was used to examine the statistical differences between experimental groups. The effects of acute drug treatments on baseline respiratory system mechanics were assessed using a two-tailed paired t-test. A value of P<0.05 was considered significant.

β2-adrenergic receptor [2] = test: Determination of β-adrenergic receptor density by radioligand (ICYP) binding in lung membranes of treated asthmatic mice, Example 2; format: in vivo; conditions: for Apparent KD (of radioligand ICYP): KD of ICYP binding, not of the drug
Procedure: β2-adrenergic receptor numbers were measured in asthmatic mice as follows. […] Mice were sacrificed and lung membranes were isolated as follows. Frozen lung tissue was homogenized in an ice-cold buffer containing 0.32 M sucrose and 25 mM Tris (pH 7.4) using a polytron (Pro 200, Pro Scientific, Inc.). The homogenate was centrifuged at 1000×g for 10 min at 4° C. The resulting supernatant was centrifuged at 40,000×g for 20 min at 4° C. The pellet was suspended in an ice-cold 25 mM Tris-HCl buffer (pH 7.4) and centrifuged at 40,000×g for 20 min at 4° C. The final pellet was suspended in 200 μL of 25 mM Tris-HCl (pH 7.4); membrane protein concentration was determined by BCA protein assay kit. […] The incubation was done at 37° C. for 2 h and terminated by rapid vacuum filtration through glass fiber filters. The filters were washed three times with 250 μL of cold wash buffer (25 mM Tris-HCl, pH 7.4) and the radioactivity determined in a counter. […] Receptor densities are expressed as femtomoles of sites per milligram of protein. Bmax is determined by nonlinear regression of the saturation binding curves. […] Please note that the 15-minute and 28-day time points refer to duration of drug treatment.

[3] = tested on: ovalbumin-sensitized, allergen-challenged mice; test: Aminophylline on acute airway effects of nadolol (methacholine-induced bronchoconstriction), Example 5; format: in vivo; conditions: nadolol 0.72 mg/kg i.p. 15 minutes prior to methacholine challenge
asthmatic mice [4] = test: β-adrenergic receptor drugs at low and high doses on airway resistance, Example 7; format: in vivo
Procedure: For these experiments, salbutamol was used for chronic administration at 0.5 mg/kg/day with a minipump and for acute administration at 0.15 mg/kg by i.v. bolus 15 minutes prior to challenge. […] Carvedilol was used at a high dose of 2400 ppm in chow or at a low dose of 720 ppm in chow. […] In these diagrams, Ctrl=control mice, non-asthmatic, non-drug treated; NTX=asthmatic mice, non-drug treated; AC=acute administration; 2d=chronic administration for 2 days; 28d=chronic administration for 28 days. The airway resistance (Raw) is plotted as cm H2O ml^−1 s.

asthmatic mice [5] = test: Decrease in airway resistance (Raw) by period of administration, Example 8 / Table 2; format: in vivo
Procedure: (§1) The periods of administration of the agents are 15 minutes, 2 days, and 28 days. […] This strongly supports the concept of combination therapy, such as with an inverse agonist and an agonist.

[6] = tested on: mucous metaplasia in sensitized/challenged mice; test: Mucous metaplasia in sensitized/challenged mice (photomicrographs), Example 10; format: in vivo; conditions: sensitized/challenged mice after treatment
[7] = tested on: patients who had a history of failing to quit smoking programs; test: Success of smoking cessation versus placebo, Example 14; format: in vivo, human; conditions: patients who had failed quit smoking programs at least 5 times
[8] = tested on: subjects with mild asthma; test: Salbutamol effectiveness after methacholine challenge in subjects with mild asthma on nadolol, Example 15; format: in vivo, human; conditions: salbutamol 2.5 mg by nebulization
Text: Salbutamol is a short-acting β2-adrenergic receptor agonist.

β-arrestin pathway = test: Blockade of the β-arrestin pathway, Example 16 / FIG. 16; format: cell-based
cAMP accumulation = test: cAMP accumulation, Example 16 / FIG. 16; format: cell-based
[9] = tested on: asthmatic mice (ovalbumin-sensitized and ovalbumin-challenged); conditions: same mouse asthma model; Callaerts-Vegh et al. 2004; cited from earlier work
[10] = cited from earlier work
β2-adrenergic receptor [11] = target: T1, β2-adrenergic receptor (Mus musculus, UniProt P18762); test: Upregulation of β2-adrenergic receptor density by period of administration, Example 8 / Table 2; format: in vivo, mice; design: from tissue
T1 sequence (P18762 whole entry): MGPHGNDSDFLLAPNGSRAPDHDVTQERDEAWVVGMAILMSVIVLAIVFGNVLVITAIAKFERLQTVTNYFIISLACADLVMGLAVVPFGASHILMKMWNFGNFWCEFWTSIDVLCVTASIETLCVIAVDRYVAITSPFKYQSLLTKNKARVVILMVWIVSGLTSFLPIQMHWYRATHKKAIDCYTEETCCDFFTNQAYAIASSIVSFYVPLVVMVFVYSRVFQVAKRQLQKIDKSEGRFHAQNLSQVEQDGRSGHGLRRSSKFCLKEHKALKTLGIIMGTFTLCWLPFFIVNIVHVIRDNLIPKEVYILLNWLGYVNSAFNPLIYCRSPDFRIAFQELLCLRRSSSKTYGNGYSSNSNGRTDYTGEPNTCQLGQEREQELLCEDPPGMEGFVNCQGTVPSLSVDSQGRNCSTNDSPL
Procedure: as §1

β2-adrenergic receptor [12] = target: T1, β2-adrenergic receptor; test: Immunohistochemistry of β2-adrenergic receptor levels in lung sections, Example 3; format: in vivo, mice; design: from tissue; host or cells: mouse lung sections; conditions: chronic nadolol versus untreated animals; epifluorescent microscopy
Procedure: The mice were sacrificed and the lungs excised. Then the lungs were fixed in 4% paraformaldehyde (45 min, 0° C.). After fixation, lungs were washed in PBS (60 min) and placed in increasing concentrations of sucrose (10% sucrose/5% glycine in PBS for 30 min; 20% sucrose/10% glycine in PBS for 30 min; 30% sucrose/15% glycine in PBS for 12 h at 4° C.). Lungs were embedded in OCT and 12-μm sections cut with a Tissue-Tek II cryostat. The sections were air-dried and fixed with 4% paraformaldehyde for 15 minutes. After 3 washes in PBS, the slides were blocked with 5% milk in PBS for 1 hour, and then incubated overnight with anti-β2-adrenergic receptor antibody (1:200, Santa Cruz Biotechnology) in blocking solution. Slides were washed in PBS and incubated with secondary antibody (1:200, Cy3 goat anti-rabbit antibody, 16 h at 4° C.). […] After washing with PBS, coverslips were mounted and viewed by epifluorescent microscopy.

increase of the level of β2-adrenergic receptors over the non-treated mice (β2-adrenergic receptor [2]; chronic administration, versus untreated methacholine-challenged asthmatic mice): nearly eightfold increase
Increased β2AR density (β2-adrenergic receptor [11]; 15 minutes administration): no
Increased β2AR density (β2-adrenergic receptor [11]; 2 days administration): yes
Increased β2AR density (β2-adrenergic receptor [11]; 28 days administration): yes
labeling with anti-β2-adrenergic receptor antibodies in lungs (β2-adrenergic receptor [12]): considerably more intense
SMILES: CC(C)(C)NCC(O)COc1cccc2c1CC(O)C(O)C2 (stereo not shown) [Nadolol, nadolol]
airway responsiveness to methacholine provocation (Raw), chronic treatment ([1]; drug delivered for 28 days (chow or osmotic minipump)): produced a decrease in airway responsiveness, which was more pronounced than that caused by carvedilol treatment
airway responsiveness to methacholine provocation (Raw), acute treatment ([1]; single intravenous bolus 15 minutes before methacholine): enhanced the airway responsiveness of asthmatic mice
Apparent KD (of radioligand ICYP) (β2-adrenergic receptor [2]; lung membranes, drug treatment 15 Minutes): (695.1 ± 286.3) pM
Bmax (β-adrenergic receptor density) (β2-adrenergic receptor [2]; lung membranes, drug treatment 15 Minutes, mean ± SEM, n=3-5): 181.9 ± 48.28 femtomoles of sites per milligram of protein
Apparent KD (of radioligand ICYP) (β2-adrenergic receptor [2]; lung membranes, drug treatment 28 Days): (1591.6 ± 335.0) pM
βmax (β-adrenergic receptor density) (β2-adrenergic receptor [2]; lung membranes, drug treatment 28 Days, mean ± SEM, n=3-5): 785.5 ± 154.8 femtomoles of sites per milligram of protein
baseline airway resistance [3]: the same baseline airway resistance as non-drug treated sensitized and allergen-challenged mice
protection from airway hyperresponsiveness (asthmatic mice [4]; chronic administration in chow, high and low dose): providing protection from airway hyperresponsiveness with chronic administration
airway resistance (Raw) at 1 ppm in chow (asthmatic mice [4]; nadolol 1 ppm in chow): identical to the untreated mice
Decreased Raw (asthmatic mice [5]; 15 minutes administration): no
Decreased Raw (asthmatic mice [5]; 2 days administration): yes
Decreased Raw (asthmatic mice [5]; 28 days administration): yes
mucous metaplasia [6]: nearly complete elimination of mucous metaplasia
reduction in smoking [7]: 70%
effect on effectiveness of salbutamol after methacholine challenge [8]: does not block the effectiveness of the administration of salbutamol
block of the β-arrestin pathway (β-arrestin pathway): acts to block the β-arrestin pathway
cAMP accumulation (cAMP accumulation): not associated with cAMP accumulation
airway hyperresponsiveness, administered acutely [9]: worsens airway hyperresponsiveness
airway hyperresponsiveness, administered chronically [9]: prevents airway hyperresponsiveness
lipid solubility [10]: low lipid solubility
